≈ marks a conversion by molar mass, not a printed value. Where two headings read alike, the source gives them in different places.
How the values were obtained:
M. tuberculosis H37Rv = test: microbe, parasite or virus in culture; format: cell-based, Mycobacterium tuberculosis; details: 7 days incubation, resazurin readout, tested 300 to 2.3 µM, read-out: MIC90 M. tuberculosis (REMA)
[1] = system: M. tuberculosis H37Rv expressing GFP (H37Rv::pJKD6); test: microbe, parasite or virus in culture; format: cell-based, Mycobacterium tuberculosis; details: for MIC: Mycobacterium tuberculosis, H37RV, 168 h, read-out: MIC98 M. tuberculosis (GFP)
[2] = system: Staphylococcus aureus (SH1000); test: microbe, parasite or virus in culture; format: cell-based; details: 5 h incubation, resazurin readout, tested 300 to 2.3 µM, read-out: MIC90 S. aureus (REMA)
BALB/3T3 cells = test: Cytotoxicity by live imaging (Hoechst 33342 / propidium iodide); format: cell-based; details: BALB/3T3 cells; 0, 12.5, 25, 50, 100 µM; imaging at 24 h and 48 h; read-out: Cytotoxicity Balb3T3 CC50
Method: (§1) The cytotoxicity of the compounds to BALB/3T3 cells was determined using live imaging following both Hoechst 33342 and propidium iodide staining. Briefly, BALB/3T3 cells were seeded in a 384-well plate and 24 h later, the compounds were added (0, 12.5, 25, 50, and 100 µM) to the culture medium, as well as Hoechst 33342 and propidium iodide (PI). Then, 24 h and 48 h after the compounds were added, live imaging was performed using an In Cell Analyzer 6000 (STP GE Healthcare, Glascow, UK). The cytotoxicity was defined based on the ratio of the population of dead or dying cells (propidium iodide staining) to the total cell population (Hoechst staining), as determined using Columbus software 2.9.1 (PerkinElmer Informatics, WA, USA). The compounds were tested in triplicate. Carfilzomib (500, 250, 140, and 60 nM) was used as the positive control in this assay.

[3] = Kinetic solubility in PBS by LC-MS/MS; format: physicochemical
Method: The kinetic solubility was determined using LC–MS/MS analysis in PBS at pH 7.4. Briefly, a 10 mM 100% DMSO solution of the compound was diluted 50-fold either in PBS at pH 7.4 (in triplicate) or in DMSO in polypropylene tubes (n = 3 for PBS and n = 6 for DMSO). The tubes were gently shaken for 24 h at 21 °C. Then, the three PBS tubes and three of the six DMSO tubes were centrifuged for 5 min at 4000 rpm and filtered over 0.45 μm filters (Millex-LH Millipore). Then, 40 μL of each solution was diluted in 160 μL of MeCN and 40 µL of Milli-Q water and transferred to matrix tubes for the LC–MS/MS analysis. The solubility was determined according to the following formula: Solubility (μM) = (AUC (filtered PBS)/AUC (not filtered DMSO)) × 200. The test was validated if (AUC (not filtered DMSO) − AUC (filtered DMSO))/AUC (not filtered DMSO) ≤ 10%.

[4] = Cytotoxicity by live imaging (Hoechst 33342 / propidium iodide); format: cell-based; details: mouse
Method: as §1

M. tuberculosis strains = system: M. tuberculosis strains; design: method as in PMID 9747541; details: cited from earlier work
[5] = Mycobacterium tuberculosis, H37RV, 168 h
[6] = 21 °C, pH 7.4, aqueous buffer, kinetic from dmso stock

Row | Compound | MIC90 (M. tuberculosis H37Rv) [µM] | MIC98 M. tuberculosis (GFP) [1] [µM] | MIC90 [2] [µM] | CC50 (BALB/3T3 cells) [µM] | solubility at 24 h ([3]; kinetic solubility, PBS pH 7.4, 24 h at 21 °C, from 10 mM DMSO solution diluted 50-fold, read-out: Solubility) [µM] | MIC90 (M. tuberculosis H37Rv; [5]) [µM] | MIC [1] [µM] | MIC90 ([2]; Staphylococcus aureus) [µM] | CC50 [4] [µM] | solubility at 24 h [3, 6] [µM] | minimum inhibitory concentration (MIC) against M. tuberculosis strains (M. tuberculosis strains) [µg/mL]
1 | tert-butyl-N-hydroxy-N-[(1S,2S,4R,7R,11S)-4-methyl-8,12-dimethylene-13-oxo-3,14-dioxatricyclo[9.3.0.02,4]tetradecan-7-yl]carbamate [Compound 12] | 38 | 19 to 38 | >300 | > 100 | 176 |  |  |  |  |  | 
2 | C=C1CC[C@H]2C(=C)C(=O)O[C@@H]2[C@@H]2O[C@]2(C)CC[C@H]1N(O)C(=O)OCC(Cl)(Cl)Cl [Compound 15, 2,2,2-trichloroethyl-N-hydroxy-N-[(1S,2S,4R,7R,11S)-4-methyl-8,12-dimethylene-13-oxo-3,14-dioxatricyclo[9.3.0.02,4]tetradecan-7-yl]carbamate] |  |  |  |  |  | 38 (≈ 17.3 µg/mL) | 19 (≈ 8.64 µg/mL) | > 300 | 12.5 | 184 (≈ 83.7 µg/mL) | 
3 | C=C1C(=O)O[C@H]2[C@H]1CC/C(C)=C/CC[C@@]1(C)O[C@@H]21 [Compound 1, Parthenolide] |  |  |  |  |  | 9.4 to 19 (≈ 2.33 to 4.72 µg/mL) | 9.4 to 19 (≈ 2.33 to 4.72 µg/mL) | > 300 | > 100 | 135 (≈ 33.5 µg/mL) | 16 (≈ 64.4 µM)
4 | C=C1CC[C@H]2C(=C)C(=O)O[C@@H]2[C@@H]2O[C@]2(C)CC[C@H]1N(O)C(=O)NCc1ccccc1 [Compound 6, 3-benzyl-1-hydroxy-1-[(1S,2S,4R,7R,11S)-4-methyl-8,12-dimethylene-13-oxo-3,14-dioxatricyclo [9.3.0.02,4]tetradecan-7-yl]urea] |  |  |  |  |  | 38 to 75 (≈ 15.7 to 30.9 µg/mL) | 19 to 38 (≈ 7.84 to 15.7 µg/mL) | > 300 | > 25 | 196 (≈ 80.8 µg/mL) | 

From article PMC10744032, “Regioselective and Stereoselective Synthesis of Parthenolide Analogs by Acyl Nitroso-Ene Reaction and Their Biological Evaluation against Mycobacterium tuberculosis” (International Journal of Molecular Sciences, 2023)
